The text below walks through data of patent US20260327204A1, “DEGRADERS OF CYCLIN-DEPENDENT KINASE 12/13, COMPOSITIONS, AND USES THEREOF” (ZHEJIANG UNIVERSITY, priority 2023, published 2026).

In assay [1] the target is CDK13 (Homo sapiens, UniProt Q14004). Briefly: Western blot degradation of CDK13 (Example 3). It counts as cell-based. The arrangement: degradation of CDK12/13 protein in leukemia cells KASUMI-1, MV4-11, and Jurkat; endogenous in cells. Particulars: DC50 classes, cell line not given; for DC50: read-out: CDK13 degradation Activity.
In assay [2] the target is CDK12 (Homo sapiens, UniProt Q9NYV4). As to the kind of experiment: Western blot degradation of CDK12 (Example 3). It counts as cell-based. On the set-up: degradation of CDK12/13 protein in leukemia cells KASUMI-1, MV4-11, and Jurkat; endogenous in cells. Particulars: DC50 classes; cell line not given; read-out: CDK12 degradation Activity. (In general: In western blotting, separated proteins are transferred to a membrane and probed.)
CDK12, sequence (Q9NYV4 whole entry): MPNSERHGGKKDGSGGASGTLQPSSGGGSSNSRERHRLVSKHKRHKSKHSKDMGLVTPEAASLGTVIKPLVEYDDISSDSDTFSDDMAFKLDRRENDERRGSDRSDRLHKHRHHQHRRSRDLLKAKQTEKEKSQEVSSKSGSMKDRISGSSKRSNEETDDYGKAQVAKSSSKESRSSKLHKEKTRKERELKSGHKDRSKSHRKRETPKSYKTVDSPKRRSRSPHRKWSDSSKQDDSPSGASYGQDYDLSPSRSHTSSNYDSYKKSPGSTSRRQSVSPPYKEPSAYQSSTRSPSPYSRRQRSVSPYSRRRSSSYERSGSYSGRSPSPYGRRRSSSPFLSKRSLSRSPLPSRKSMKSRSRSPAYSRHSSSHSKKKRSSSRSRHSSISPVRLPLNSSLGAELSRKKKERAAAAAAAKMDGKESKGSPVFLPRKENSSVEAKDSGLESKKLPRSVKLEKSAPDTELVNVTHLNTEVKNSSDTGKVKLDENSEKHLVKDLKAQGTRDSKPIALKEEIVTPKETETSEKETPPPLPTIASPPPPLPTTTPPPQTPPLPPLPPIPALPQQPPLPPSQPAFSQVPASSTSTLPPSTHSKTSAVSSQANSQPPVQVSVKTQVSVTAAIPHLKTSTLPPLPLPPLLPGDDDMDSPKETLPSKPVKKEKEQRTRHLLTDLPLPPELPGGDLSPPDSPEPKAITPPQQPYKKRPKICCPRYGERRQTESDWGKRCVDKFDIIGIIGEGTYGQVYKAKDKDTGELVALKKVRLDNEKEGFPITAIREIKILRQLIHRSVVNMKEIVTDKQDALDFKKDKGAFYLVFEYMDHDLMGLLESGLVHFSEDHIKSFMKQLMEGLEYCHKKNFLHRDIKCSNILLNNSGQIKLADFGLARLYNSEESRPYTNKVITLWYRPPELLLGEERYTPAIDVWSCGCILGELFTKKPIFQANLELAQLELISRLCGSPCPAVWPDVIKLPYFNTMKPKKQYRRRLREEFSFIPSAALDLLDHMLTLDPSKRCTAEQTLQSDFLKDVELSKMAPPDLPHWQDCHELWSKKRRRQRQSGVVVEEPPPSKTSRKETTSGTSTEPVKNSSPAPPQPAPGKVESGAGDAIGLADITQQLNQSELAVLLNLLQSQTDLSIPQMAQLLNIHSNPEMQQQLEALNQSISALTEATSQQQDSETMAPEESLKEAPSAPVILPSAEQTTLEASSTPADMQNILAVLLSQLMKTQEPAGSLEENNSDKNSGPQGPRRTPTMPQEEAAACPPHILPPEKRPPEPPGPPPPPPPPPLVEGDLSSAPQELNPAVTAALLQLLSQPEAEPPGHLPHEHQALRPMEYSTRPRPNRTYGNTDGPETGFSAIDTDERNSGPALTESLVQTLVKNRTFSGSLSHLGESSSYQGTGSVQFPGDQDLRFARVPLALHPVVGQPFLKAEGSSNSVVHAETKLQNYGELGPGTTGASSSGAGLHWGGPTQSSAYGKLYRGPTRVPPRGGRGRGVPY
CDK12, sequence (O75909 whole entry partner): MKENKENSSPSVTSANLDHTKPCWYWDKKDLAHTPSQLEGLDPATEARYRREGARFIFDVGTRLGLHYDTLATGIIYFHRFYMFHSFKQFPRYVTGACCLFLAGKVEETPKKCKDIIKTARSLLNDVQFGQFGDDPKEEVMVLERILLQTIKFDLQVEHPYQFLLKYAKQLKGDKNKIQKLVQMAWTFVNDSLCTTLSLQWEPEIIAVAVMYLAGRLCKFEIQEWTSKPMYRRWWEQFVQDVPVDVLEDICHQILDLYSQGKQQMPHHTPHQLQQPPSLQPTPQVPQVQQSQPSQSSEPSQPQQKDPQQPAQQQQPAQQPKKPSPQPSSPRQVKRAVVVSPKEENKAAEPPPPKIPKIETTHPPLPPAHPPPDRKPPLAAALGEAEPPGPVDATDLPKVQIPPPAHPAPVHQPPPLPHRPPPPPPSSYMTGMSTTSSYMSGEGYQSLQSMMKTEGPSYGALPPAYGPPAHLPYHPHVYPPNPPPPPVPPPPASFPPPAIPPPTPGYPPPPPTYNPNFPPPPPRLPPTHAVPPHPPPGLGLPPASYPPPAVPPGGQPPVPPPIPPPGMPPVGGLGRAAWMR

CDK13, sequence (Q14004 whole entry): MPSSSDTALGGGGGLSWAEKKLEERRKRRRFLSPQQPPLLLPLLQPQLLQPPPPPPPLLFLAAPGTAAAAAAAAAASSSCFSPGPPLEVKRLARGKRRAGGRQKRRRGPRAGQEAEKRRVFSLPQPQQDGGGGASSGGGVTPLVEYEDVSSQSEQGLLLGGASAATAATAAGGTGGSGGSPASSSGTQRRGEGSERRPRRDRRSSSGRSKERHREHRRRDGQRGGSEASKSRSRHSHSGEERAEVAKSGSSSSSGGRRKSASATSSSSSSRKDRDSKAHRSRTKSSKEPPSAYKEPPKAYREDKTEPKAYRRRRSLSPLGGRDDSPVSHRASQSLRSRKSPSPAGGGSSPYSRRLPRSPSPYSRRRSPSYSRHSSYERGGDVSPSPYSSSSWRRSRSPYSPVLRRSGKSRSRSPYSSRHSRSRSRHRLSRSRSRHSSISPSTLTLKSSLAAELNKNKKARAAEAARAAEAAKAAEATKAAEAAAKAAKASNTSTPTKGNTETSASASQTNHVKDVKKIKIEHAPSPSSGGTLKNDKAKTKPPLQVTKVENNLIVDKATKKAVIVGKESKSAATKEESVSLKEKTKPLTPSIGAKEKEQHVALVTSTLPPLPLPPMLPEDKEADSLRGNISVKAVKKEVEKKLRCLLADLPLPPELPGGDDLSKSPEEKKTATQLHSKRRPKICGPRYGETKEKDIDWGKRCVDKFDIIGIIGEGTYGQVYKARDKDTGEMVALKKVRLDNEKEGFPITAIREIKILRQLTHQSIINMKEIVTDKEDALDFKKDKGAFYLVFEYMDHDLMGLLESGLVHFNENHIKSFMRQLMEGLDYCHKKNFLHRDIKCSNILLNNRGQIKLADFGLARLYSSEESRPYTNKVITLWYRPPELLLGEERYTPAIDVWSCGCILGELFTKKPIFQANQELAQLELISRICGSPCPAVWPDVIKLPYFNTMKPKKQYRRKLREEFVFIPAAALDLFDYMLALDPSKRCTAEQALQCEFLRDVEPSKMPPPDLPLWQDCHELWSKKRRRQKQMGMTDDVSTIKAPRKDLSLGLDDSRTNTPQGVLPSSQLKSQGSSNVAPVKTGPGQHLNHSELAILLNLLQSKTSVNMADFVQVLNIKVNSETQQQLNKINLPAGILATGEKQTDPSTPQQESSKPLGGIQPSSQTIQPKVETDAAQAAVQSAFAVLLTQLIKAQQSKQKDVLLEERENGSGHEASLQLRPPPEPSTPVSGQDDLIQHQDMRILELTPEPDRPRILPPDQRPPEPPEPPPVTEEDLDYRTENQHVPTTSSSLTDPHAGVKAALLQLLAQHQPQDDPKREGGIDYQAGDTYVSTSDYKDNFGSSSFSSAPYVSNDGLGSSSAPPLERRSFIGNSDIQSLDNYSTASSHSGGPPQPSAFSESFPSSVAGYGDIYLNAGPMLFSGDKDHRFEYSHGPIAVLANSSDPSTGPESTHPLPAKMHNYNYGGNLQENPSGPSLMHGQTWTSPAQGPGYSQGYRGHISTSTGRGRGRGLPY
CDK13, sequence (O75909 whole entry partner): as the sequence (O75909 whole entry partner) above

Turning to `CC(=O)N(c1ccc(-c2cnn(C3CCN(CC(=O)N[C@H](C(=O)N4C[C@H](O)C[C@H]4C(=O)N[C@@H](C)c4ccc(-c5scnc5C)cc4)C(C)(C)C)CC3)c2)cc1)[C@H]1CC[C@H](Nc2ncc3ccccc3n2)CC1` [Formula 139], the DC50 in assay [1] and in assay [2] was 1 to 3 µM throughout.

On to `CC(=O)N(c1ccc(N2CCN(C3CN(c4ccc5c(c4)C(=O)N(C4CCC(=O)NC4=O)C5=O)C3)CC2)cc1)[C@H]1CC[C@H](Nc2ncc3ccccc3n2)CC1` (stereo partly drawn) [Formula 124, N-(4-(4-(1-(2-(2,6-dioxopiperidin-3-yl)-1,3-dioxoisoindolin-5-yl)azetidin-3-yl)piperazin-1-yl)phenyl)-N-((1R,4R)-4-(quinazolin-2-ylamino)cyclohexyl)acetamide], for which the DC50 in assay [1] and in assay [2] was 1 to 3 µM each time.

Turning to `CC(=O)N(c1ccc(-c2ccc(N3C[C@H]4C[C@@H]3CN4CC(=O)N[C@H](C(=O)N3C[C@H](O)C[C@H]3C(=O)N[C@@H](C)c3ccc(-c4scnc4C)cc3)C(C)(C)C)nc2)cc1)[C@H]1CC[C@H](Nc2ncc3ccccc3n2)CC1` [Formula 143, (2S,4R)-1-((S)-3,3-dimethyl-2-(2-((1R,4R)-5-(5-(4-(N-((1R,4S)-4-(quinazolin-2-ylamino)cyclohexyl)acetamido)phenyl)pyridin-2-yl)-2,5-diazabicyclo[2.2.1]heptan-2-yl)acetamido)butanoyl)-4-hydroxy-N—((S)-1-(4-(4-methylthiazol-5-yl)phenyl)ethyl)pyrrolidine-2-carboxamide], the DC50 in assay [1] and in assay [2] was 0.1 to 0.5 µM in each case.

As for `CC(=O)N(c1ccc(-c2cnn(C3CCN(c4ccc5c(c4)C(=O)N(C4CCC(=O)NC4=O)C5=O)CC3)c2)cc1)[C@H]1CC[C@H](Nc2ncc3ccccc3n2)CC1` (stereo partly drawn) [Formula 117, N-(4-(1-(1-(2-(2,6-dioxopiperidin-3-yl)-1,3-dioxoisoindolin-5-yl)piperidin-4-yl)-1H-pyrazol-4-yl)phenyl)-N-((1R,4R)-4-(quinazolin-2-ylamino)cyclohexyl)acetamide], the DC50 lay within 0.5 to 1 µM in assay [1] and 1 to 3 µM in assay [2].

Turning to `CC(=O)N(c1ccc(-c2cnc(N3CCN(c4cnn([C@H](C(=O)N5C[C@H](O)C[C@H]5C(=O)N[C@@H](C)c5ccc(-c6scnc6C)cc5)C(C)C)c4)CC3)nc2)cc1)[C@H]1CC[C@H](Nc2ncc3ccccc3n2)CC1` [Formula 154, (2S,4R)-4-hydroxy-1-((S)-3-methyl-2-(4-(4-(5-(4-(N-((1R,4R)-4-(quinazolin-2-ylamino)cyclohexyl)acetamido)phenyl)pyrimidin-2-yl)piperazin-1-yl)-1H-pyrazol-1-yl)butanoyl)-N—((S)-1-(4-(4-methylthiazol-5-yl)phenyl)ethyl)pyrrolidine-2-carboxamide], the DC50 was less than 0.1 µM in assay [1] and 0.1 to 0.5 µM in assay [2].

On to `CC(=O)N(c1ccc(-c2ccc3c(c2)CCN(CC(=O)N[C@H](C(=O)N2C[C@H](O)C[C@H]2C(=O)N[C@@H](C)c2ccc(-c4scnc4C)cc2)C(C)(C)C)C3)cc1)[C@H]1CC[C@H](Nc2ncc3ccccc3n2)CC1` [Formula 149, (2S,4R)-1-((S)-3,3-dimethyl-2-(2-(6-(4-(N-((1R,4R)-4-(quinazolin-2-ylamino)cyclohexyl)acetamido)phenyl)-3,4-dihydroisoquinolin-2(1H)-yl)acetamido)butanoyl)-4-hydroxy-N—((S)-1-(4-(4-methylthiazol-5-yl)phenyl)ethyl)pyrrolidine-2-carboxamide], for which the DC50 fell in the range of 1 to 3 µM in assay [1] and 0.5 to 1 µM in assay [2].

In the case of `CC(=O)N(c1ccc(-c2cnn(CC3CN(CC(=O)N[C@H](C(=O)N4C[C@H](O)C[C@H]4C(=O)N[C@@H](C)c4ccc(-c5scnc5C)cc4)C(C)(C)C)C3)c2)cc1)[C@H]1CC[C@H](Nc2ncc3ccccc3n2)CC1` (stereo in doubt) [Formula 140, (2S,4R)-1-((R)-3,3-dimethyl-2-(2-(3-((4-(4-(N-((1R,4R)-4-(quinazolin-2-ylamino)cyclohexyl)acetamido)phenyl)-1H-pyrazol-1-yl)methyl)azetidin-1-yl)acetamido)butanoyl)-4-hydroxy-N—((R)-1-(4-(4-methylthiazol-5-yl)phenyl)ethyl)pyrrolidine-2-carboxamide], the DC50 is 0.5 to 1 µM in assay [1] and 1 to 3 µM in assay [2].

On to `CC(=O)N(c1ccc(-c2cnc(N3CCN(c4ccc5c(c4)C(=O)N(C4CCC(=O)NC4=O)C5=O)CC3)nc2)cc1)[C@H]1CC[C@H](Nc2ncc3ccccc3n2)CC1` (stereo partly shown) [Formula 107], for which the DC50 in assay [1] and in assay [2] was less than 0.1 µM in each case.

Regarding `CC(=O)N(c1ccc(N2CCN(C(=O)/C=C/c3ccc4c(c3)C(=O)N(C3CCC(=O)NC3=O)C4=O)CC2)cc1)[C@H]1CC[C@H](Nc2ncc3ccccc3n2)CC1` (stereo partly drawn) [Formula 118, N-(4-(4-((E)-3-(2-(2,6-dioxopiperidin-3-yl)-1,3-dioxoisoindolin-5-yl)acryloyl)piperazin-1-yl)phenyl)-N-((1R,4R)-4-(quinazolin-2-ylamino)cyclohexyl)acetamide], the DC50 in assay [1] lay within 0.5 to 1 µM; in assay [2], 1 to 3 µM.

Take `CC(=O)N(c1ccc(-c2ccn(CC3CCN(c4ccc5c(c4)C(=O)N(C4CCC(=O)NC4=O)C5=O)CC3)c(=O)c2)cc1)[C@H]1CC[C@H](Nc2ncc3ccccc3n2)CC1` (stereo partly drawn) [Formula 111, N-(4-(1-((1-(2-(2,6-dioxopiperidin-3-yl)-1,3-dioxoisoindolin-5-yl)piperidin-4-yl)methyl)-2-oxo-1,2-dihydropyridin-4-yl)phenyl)-N-((1R,4R)-4-(quinazolin-2-ylamino)cyclohexyl)acetamide]: the DC50 in assay [1] and in assay [2] was 1 to 3 µM in each case.

Consider `CC(=O)N(c1ccc(-c2cnc(OCCOCC(=O)N[C@H](C(=O)N3C[C@H](O)C[C@H]3C(=O)N[C@@H](C)c3ccc(-c4scnc4C)cc3)C(C)(C)C)nc2)cc1)[C@H]1CC[C@H](Nc2ncc3ccccc3n2)CC1` [Formula 132, (2S,4R)-1-((S)-3,3-dimethyl-2-(2-(2-((5-(4-(N-((1R,4R)-4-(quinazolin-2-ylamino)cyclohexyl)acetamido)phenyl)pyrimidin-2-yl)oxy)ethoxy)acetamido)butanoyl)-4-hydroxy-N—((S)-1-(4-(4-methylthiazol-5-yl)phenyl)ethyl)pyrrolidine-2-carboxamide], for which the DC50 in assay [1] and in assay [2] was 0.5 to 1 µM each time.

With `CC(=O)N(c1ccc(-c2cnc(N3CCN(CC(=O)N[C@H](C(=O)N4C[C@H](O)C[C@H]4C(=O)N[C@@H](C)c4ccc(-c5scnc5C)cc4)C(C)(C)C)CC3)nc2)cc1)[C@H]1CC[C@H](Nc2ncc3ccccc3n2)CC1` [Formula 148, (2S,4R)-1-((S)-3,3-dimethyl-2-(2-(4-(5-(4-(N-((1R,4R)-4-(quinazolin-2-ylamino)cyclohexyl)acetamido)phenyl)pyrimidin-2-yl)piperazin-1-yl)acetamido)butanoyl)-4-hydroxy-N—((S)-1-(4-(4-methylthiazol-5-yl)phenyl)ethyl)pyrrolidine-2-carboxamide], the DC50 in assay [1] and in assay [2] was less than 0.1 µM throughout.

Turning to `CC(=O)N(c1ccc(-c2cnn(CC3CN(c4ccc5c(c4)C(=O)N(C4CCC(=O)NC4=O)C5=O)C3)c2)cc1)[C@H]1CC[C@H](Nc2ncc3ccccc3n2)CC1` (stereo partly drawn) [Formula 115, N-(4-(1-((1-(2-(2,6-dioxopiperidin-3-yl)-1,3-dioxoisoindolin-5-yl)azetidin-3-yl)methyl)-1H-pyrazol-4-yl)phenyl)-N-((1R,4R)-4-(quinazolin-2-ylamino)cyclohexyl)acetamide], the DC50 in assay [1] and in assay [2] was 1 to 3 µM throughout.

As to `CC(=O)N(c1ccc(-c2cnc(N3CCC(C(=O)N[C@H](C(=O)N4C[C@H](O)C[C@H]4C(=O)N[C@@H](C)c4ccc(-c5scnc5C)cc4)C(C)(C)C)CC3)nc2)cc1)[C@H]1CC[C@H](Nc2ncc3ccccc3n2)CC1` [Formula 138, N—((S)-1-((2S,4R)-4-hydroxy-2-(((S)-1-(4-(4-methylthiazol-5-yl)phenyl)ethyl)carbamoyl)pyrrolidin-1-yl)-3,3-dimethyl-1-oxobutan-2-yl)-1-(5-(4-(N-((1R,4R)-4-(quinazolin-2-ylamino)cyclohexyl)acetamido)phenyl)pyrimidin-2-yl)piperidine-4-carboxamide], the “CDK13 degradation Activity” value in assay [1] is recorded as “−”. The DC50 in assay [2] lay in the range of 1 to 3 µM.

In the case of `CC(=O)N(c1ccc(-c2cncc(C(=O)N[C@H]3CCC(=O)NC3=O)c2)cc1)[C@H]1CC[C@H](Nc2ncc3ccccc3n2)CC1` [Formula 128, N—((S)-2,6-dioxopiperidin-3-yl)-5-(4-(N-((1R,4S)-4-(quinazolin-2-ylamino)cyclohexyl)acetamido)phenyl)nicotinamide], the DC50 in assay [1] and in assay [2] was 3 to 10 µM throughout.

Take `CC(=O)N(c1ccc(-c2ccc(C(=O)N[C@H]3CCC(=O)NC3=O)nc2)cc1)[C@H]1CC[C@H](Nc2ncc3ccccc3n2)CC1` [Formula 129, N—((S)-2,6-dioxopiperidin-3-yl)-5-(4-(N-((1R,4S)-4-(quinazolin-2-ylamino)cyclohexyl)acetamido)phenyl)pyridinecarboxamide]: the DC50 in assay [1] and in assay [2] was 3 to 10 µM each time.

For the molecule `CC(=O)N(c1ccc(-c2ccc(OC3CCN(CC(=O)N[C@H](C(=O)N4C[C@H](O)C[C@H]4C(=O)N[C@@H](C)c4ccc(-c5scnc5C)cc4)C(C)(C)C)CC3)nc2)cc1)[C@H]1CC[C@H](Nc2ncc3ccccc3n2)CC1` [Formula 135, (2S,4R)-1-((S)-3,3-dimethyl-2-(2-(4-((5-(4-(N-((1R,4R)-4-(quinazolin-2-ylamino)cyclohexyl)acetamido)phenyl)pyridin-2-yl)oxy)piperidin-1-yl)acetamido)butanoyl)-4-hydroxy-N—((S)-1-(4-(4-methylthiazol-5-yl)phenyl)ethyl)pyrrolidine-2-carboxamide], the DC50 lay in the range of 1 to 3 µM in assay [1] and 0.5 to 1 µM in assay [2].
